Earlier results as cited in patent publication US12569475B2, “Method for eradicating helicobacter pylori infection in patients regardless of body mass index” (RedHill Biopharma Ltd., priority 2020, dated 2026).
In brackets after ≈: the same amount, converted by molar mass. Structures can show the parent of a compound that is named as a salt. Where two headings read alike, the source gives them in different places.

Row | SMILES | solubility in methanol | solubility in water (water at 25° C.) | solubility in chloroform (chloroform) | solubility in ethanol (ethanol) | solubility in water (water)
1 | COc1ccc2[nH]c([S+]([O-])Cc3ncc(C)c(OC)c3C)nc2c1 (racemic) [Omeprazole magnesium, 5-methoxy-2-[[(4-methoxy-3,5-dimethyl-2-pyridyl)methyl]sulfinyl]benzimidazole, (RS) magnesium salt (2:1)] | soluble | 250 µg/mL | – | – | –
2 | CO[C@H]1/C=C/O[C@@]2(C)Oc3c(C)c(O)c4c(c3C2=O)C2=NC3(CCN(CC(C)C)CC3)NC2=C(NC(=O)/C(C)=C\C=C\[C@H](C)[C@H](O)[C@@H](C)[C@@H](O)[C@@H](C)[C@H](OC(C)=O)[C@@H]1C)C4=O [Rifabutin, (9S,12E,14S,15R,16S,17R,18R,19R,20S,21S,22E,24Z)-6-16,18,20-tetrahydroxy-1′-isobutyl-14-methoxy-7,9,15,17,19,21,25-heptamethylspiro [9,4-(epoxypentadeca[1,11,13]trienimino)-2H-furo[2′,3′:7,8]naphth[1,2-d]imidazole-2,4′-piperidine]-5,10,26-(3H,9H)-trione-16-acetate] | soluble | – | soluble | sparingly soluble | 190 µg/mL (≈ 224 µM)
